# Data reported in US20060105008A1, “Compositions and methods for reducing vaginal pH” (priority 2002, published 2006).
# Like-named read-outs stand apart in the source and are kept apart here.
# Experiments:
# Assay in all cases: In vitro evaluation of azole compounds, MIC
# Assay type in all cases: cell-based
# [1] = tested on: Peptostreptococcus tetradius; conditions: for MIC: Anaerococcus tetradius, read-out: MIC's of drug needed to inhibit the growth of organism
# [2] = tested on: Bacillus fragilis; conditions: read-out: MIC's of drug needed to inhibit the growth of organism
# [3] = tested on: Peptostreptococcus asaccharolyticus; conditions: Peptoniphilus asaccharolyticus, one table line per isolate, read-out: MIC's of drug needed to inhibit the growth of organism
# [4] = tested on: Mobiluncus mulieris; conditions: read-out: MIC's of drug needed to inhibit the growth of organism
# [5] = tested on: Prevotella disiens; conditions: one table line per isolate; for MIC: read-out: MIC's of drug needed to inhibit the growth of organism
# [6] = tested on: Prevotella bivia; conditions: one table line per isolate; for MIC: read-out: MIC's of drug needed to inhibit the growth of organism
# [7] = tested on: Peptostreptococcus magnus; conditions: Finegoldia magna, one table line per isolate, read-out: MIC's of drug needed to inhibit the growth of organism
# [8] = tested on: Prevotella melaninogenica; conditions: one table line per isolate; for MIC: read-out: MIC's of drug needed to inhibit the growth of organism
# [9] = tested on: Gardnerella vaginalis; conditions: one table line per isolate, read-out: MIC's of drug needed to inhibit the growth of organism
# [10] = tested on: Lactobacillus plantarum; conditions: Lactiplantibacillus plantarum, read-out: MIC's of drug needed to inhibit the growth of organism
# [11] = tested on: Bacillus theta; conditions: read-out: MIC's of drug needed to inhibit the growth of organism
# [12] = tested on: Lactobacillus acidophilus; conditions: one table line per isolate; for MIC: read-out: MIC's of drug needed to inhibit the growth of organism
# [13] = tested on: Prevotella intermedia; conditions: one table line per isolate; for MIC: read-out: MIC's of drug needed to inhibit the growth of organism
# [14] = tested on: Lactobacillus species; conditions: read-out: MIC's of drug needed to inhibit the growth of organism
# [15] = Peptostreptococcus tetradius, one table line per isolate
SMILES,MIC [2] [µg/mL],MIC [3] [µg/mL],MIC [4] [µg/mL],MIC [6] [µg/mL],MIC [11] [µg/mL],MIC [12] [µg/mL],MIC [13] [µg/mL],MIC [14] [µg/mL],"MIC [1, 15] [µg/mL]","MIC's of drug needed to inhibit the growth of organism [1, 15] [µg/mL]",MIC's of drug needed to inhibit the growth of organism [13] [µg/mL],MIC [5] [µg/mL],MIC [7] [µg/mL],MIC [8] [µg/mL],MIC [10] [µg/mL],further results
OC(Cn1cncn1)(Cn1cncn1)c1ccc(F)cc1F [Fluconazole],> 2050,> 2050,> 2050,> 2050,> 2050,> 2050,> 2050,> 2050,,,,> 2050,> 2050,> 2050,> 2050,MIC's of drug needed to inhibit the growth of organism [1]: 2048 µg/mL; MIC [1]: > 2050 µg/mL; MIC [9]: > 2050 µg/mL
Cc1ncc([N+](=O)[O-])n1CCO [Metronidazole],0.5,,4,1,2,> 32,1,> 32,1,0.5,,0.5,,,1,MIC's of drug needed to inhibit the growth of organism [5]: 1 µg/mL
Clc1ccc(COC(Cn2ccnc2)c2ccc(Cl)cc2Cl)c(Cl)c1 (stereo not shown) [Miconazole],> 128,,8,128,128,> 128,64,> 128,,,,64,,64,32,MIC's of drug needed to inhibit the growth of organism [6]: 64 µg/mL

# Now from value to molecule, other results behind:
MIC [2] [µg/mL],MIC [3] [µg/mL],MIC [4] [µg/mL],MIC [6] [µg/mL],MIC [11] [µg/mL],MIC [12] [µg/mL],MIC [13] [µg/mL],MIC [14] [µg/mL],"MIC [1, 15] [µg/mL]","MIC's of drug needed to inhibit the growth of organism [1, 15] [µg/mL]",MIC's of drug needed to inhibit the growth of organism [13] [µg/mL],SMILES,MIC [5] [µg/mL],MIC [7] [µg/mL],MIC [8] [µg/mL],MIC [10] [µg/mL],further results
256,256,256,256,256,512,128,512,256,,256,CC(C)N1CCN(c2ccc(OCC3COC(Cn4cncn4)(c4ccc(Cl)cc4Cl)O3)cc2)CC1 (stereo not shown) [Terconazole],128,256,64,256,
0.5,1,1,1,1,> 128,0.5,> 128,0.5,0.25,1,CCS(=O)(=O)CCn1c([N+](=O)[O-])cnc1C [Tinidazole],,,2,0.65,MIC's of drug needed to inhibit the growth of organism [8]: 1 µg/mL; MIC's of drug needed to inhibit the growth of organism [12]: <128 µg/mL
